The record followed here is PubChem BioAssay AID248 (DTP/NCI, 2004).

Where “and” joins values, the source holds several entries; their conditions need not be identical. Identical values can stand only once. Inconclusive results and toxic doses are left out.

This assay relates to L1210 leukemia ip in BDF1 mice, survival T/C. Kind of assay: NCI In Vivo Anticancer Drug Screen. Data for tumor model L1210 Leukemia (intraperitoneal) in B6D2F1 (BDF1) mice. Conditions: endpoint: mean survival time, higher = longer survival. The procedure, abridged: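 Tumor was transplanted into mice, which were then dosed with test compound or vehicle alone. Survival was recorded for each group, and the treated figure was expressed relative to the control figure.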

Setting [1] is: dose: 50.0 mg/kg/injection, schedule: Q01DX009 (ip), vehicle: saline with Tween-80.
The mark [2] stands for this setting: dose: 100.0 mg/kg/injection, schedule: Q01DX009 (ip), vehicle: saline with Tween-80.
The mark [3] stands for this setting: dose: 100.0 mg/kg/injection, schedule: Q04DX002 (ip), vehicle: saline with Tween-80.
Setting [4] is: dose: 200.0 mg/kg/injection, schedule: Q01DX009 (ip), vehicle: saline with Tween-80.
Setting [5] is: dose: 200.0 mg/kg/injection, schedule: Q04DX002 (ip), vehicle: saline with Tween-80.
Where [6] appears, read: dose: 400.0 mg/kg/injection, schedule: Q04DX002 (ip), vehicle: saline with Tween-80.
Where [7] appears, read: dose: 100.0 mg/kg/injection, schedule: Q01DX001 (ip), vehicle: Klucel (hydroxypropylcellulose) (HPC).
Where [8] appears, read: dose: 200.0 mg/kg/injection, schedule: Q01DX001 (ip), vehicle: Klucel (hydroxypropylcellulose) (HPC).
The mark [9] stands for this setting: dose: 100.0 mg/kg/injection, schedule: Q04DX003 (ip), vehicle: Klucel (hydroxypropylcellulose) (HPC).
The mark [10] stands for this setting: dose: 200.0 mg/kg/injection, schedule: Q04DX003 (ip), vehicle: Klucel (hydroxypropylcellulose) (HPC).
[11] abbreviates: dose: 400.0 mg/kg/injection, schedule: Q04DX003 (ip), vehicle: Klucel (hydroxypropylcellulose) (HPC).
The mark [12] stands for this setting: dose: 100.0 mg/kg/injection, schedule: Q04DX002 (ip), vehicle: saline.
[13] abbreviates: dose: 75.0 mg/kg/injection, schedule: Q01DX001 (ip), vehicle: saline.
The mark [14] stands for this setting: dose: 150.0 mg/kg/injection, schedule: Q01DX001 (ip), vehicle: saline.
[15] abbreviates: dose: 300.0 mg/kg/injection, schedule: Q01DX001 (ip), vehicle: saline.

Take `CCOC(=O)C1CCCCC1O` (configuration not stated): the T/C runs as follows: under setting [1], 103 % of control; under setting [2], 95 % of control; under setting [3], 97 % of control; under setting [4], 103 % of control; under setting [5], 97 % of control; under setting [6], 104 % of control.
As to `CC(C(=O)O)C(NC(=O)c1ccccc1)C(=O)O` (configuration not stated), the T/C under setting [7] was 93 % of control; the T/C under setting [8] is 100 % of control; the T/C (dose: 400.0 mg/kg/injection, schedule: Q01DX001 (ip), vehicle: Klucel (hydroxypropylcellulose) (HPC)) was 92 % of control.
As for `O=Cc1cc([N+](=O)[O-])ccc1O`, the T/C is 101 % of control (dose: 100.0 mg/kg/injection, schedule: Q01DX001 (ip), vehicle: other); 97 % of control (dose: 200.0 mg/kg/injection, schedule: Q01DX001 (ip), vehicle: other); 103 % of control (dose: 400.0 mg/kg/injection, schedule: Q01DX001 (ip), vehicle: other).
As for `O=C(OCC(O)C1OC(c2ccccc2)OC1C(O)COC(=O)c1ccccc1)c1ccccc1` (configuration not stated), the T/C is, setting by setting: (dose: 50.0 mg/kg/injection, schedule: Q04DX003 (ip), vehicle: saline with Tween-80) 102 % of control; (dose: 100.0 mg/kg/injection, schedule: Q04DX003 (ip), vehicle: saline with Tween-80) 92 % of control and 91 % of control; (dose: 200.0 mg/kg/injection, schedule: Q04DX003 (ip), vehicle: saline with Tween-80) 105 % of control; (dose: 400.0 mg/kg/injection, schedule: Q04DX003 (ip), vehicle: saline with Tween-80) 89 % of control.
Regarding `CSc1ccc(/C=N/NC(N)=S)c(SC)n1`, the T/C is, setting by setting: under setting [9], 98 % of control; under setting [10], 98 % of control; under setting [11], 96 % of control.
On to `Cc1ccc2cccnc2c1`, for which the T/C reads like this: (dose: 100.0 mg/kg/injection, schedule: Q01DX001 (ip), vehicle: carboxymethylcellulose (CMC)) 93 % of control; (dose: 200.0 mg/kg/injection, schedule: Q01DX001 (ip), vehicle: carboxymethylcellulose (CMC)) 93 % of control; (dose: 400.0 mg/kg/injection, schedule: Q01DX001 (ip), vehicle: carboxymethylcellulose (CMC)) 86 % of control.
Turning to `Cc1cc2nc3[nH]c4c(Cl)cc(Cl)cc4c3nc2cc1C`, the T/C is 91 % of control (dose: 100.0 mg/kg/injection, schedule: Q01DX001 (ip), vehicle: saline); 89 % of control (dose: 200.0 mg/kg/injection, schedule: Q01DX001 (ip), vehicle: saline); 89 % of control (dose: 400.0 mg/kg/injection, schedule: Q01DX001 (ip), vehicle: saline).
As to `CCCC(C)Cc1ccc(C(C)=O)cc1` (configuration not stated), the T/C (dose: 50.0 mg/kg/injection, schedule: Q01DX009 (ip), vehicle: Klucel (hydroxypropylcellulose) (HPC)) is 101 % of control; the T/C (dose: 100.0 mg/kg/injection, schedule: Q01DX009 (ip), vehicle: Klucel (hydroxypropylcellulose) (HPC)) was 106 % of control; the T/C under setting [9] is 104 % of control; the T/C (dose: 200.0 mg/kg/injection, schedule: Q01DX009 (ip), vehicle: Klucel (hydroxypropylcellulose) (HPC)) was 89 % of control; the T/C under setting [10] is 105 % of control; the T/C under setting [11] is 105 % of control.
As for `Cn1ncc(C(N)=O)c1N`, the T/C runs as follows: (dose: 100.0 mg/kg/injection, schedule: Q01DX009 (ip), vehicle: saline) 100 % of control; under setting [12], 87 % of control; (dose: 200.0 mg/kg/injection, schedule: Q01DX009 (ip), vehicle: saline) 103 % of control; (dose: 200.0 mg/kg/injection, schedule: Q04DX002 (ip), vehicle: saline) 87 % of control; (dose: 400.0 mg/kg/injection, schedule: Q01DX009 (ip), vehicle: saline) 96 % of control; (dose: 400.0 mg/kg/injection, schedule: Q04DX002 (ip), vehicle: saline) 90 % of control.
With `CN(C)CCCN=C1Nc2ccccc2C(=NCCCN(C)C)Nc2ccccc21`, the T/C by setting is: (dose: 12.5 mg/kg/injection, schedule: Q01DX009 (ip), vehicle: saline) 97 % of control; (dose: 12.5 mg/kg/injection, schedule: Q04DX003 (ip), vehicle: saline) 102 % of control; (dose: 25.0 mg/kg/injection, schedule: Q01DX009 (ip), vehicle: saline) 97 % of control; (dose: 25.0 mg/kg/injection, schedule: Q04DX003 (ip), vehicle: saline) 98 % of control; (dose: 50.0 mg/kg/injection, schedule: Q01DX009 (ip), vehicle: saline) 94 % of control; (dose: 50.0 mg/kg/injection, schedule: Q04DX003 (ip), vehicle: saline) 104 % of control.
With `O=C1/C(=C/c2ccc(Br)cc2)Cc2ccccc21`, the T/C by setting is: under setting [3], 94 % of control; under setting [5], 90 % of control; under setting [6], 90 % of control.
On to `O=C(OCc1ccccc1CN1CCCC1)c1cccc(Br)c1`, for which the T/C runs as follows: under setting [7], 95 % of control; under setting [8], 98 % of control.
For the compound `Cc1cc2cc3cccnn3c2nn1`, the T/C is 106 % of control (dose: 25.0 mg/kg/injection, schedule: Q04DX002 (ip), vehicle: saline); 98 % of control (dose: 50.0 mg/kg/injection, schedule: Q04DX002 (ip), vehicle: saline); 118 % of control (dose: 100.0 mg/kg/injection, schedule: Q04DX002 (ip), vehicle: Klucel (hydroxypropylcellulose) (HPC)); 106 % of control under setting [12].
For `O=C1CCC(N2C(=O)C3C4C=CC(CC4)C3C2=O)C(=O)N1` (configuration not stated), the T/C is, setting by setting: (dose: 100.0 mg/kg/injection, schedule: Q04DX003 (ip), vehicle: saline) 97 % of control; (dose: 200.0 mg/kg/injection, schedule: Q04DX003 (ip), vehicle: saline) 102 % of control; (dose: 400.0 mg/kg/injection, schedule: Q04DX003 (ip), vehicle: saline) 90 % of control.
As to `O=C(CBr)NC(Cc1ccccc1)C(=O)O` (configuration not stated), the T/C was 94 % of control and 90 % of control under setting [13]; 103 % of control under setting [14]; 90 % of control under setting [15].
On to `N#C[S-].N#C[S-].[Au+3].[Au+3].[CH3-].[CH3-].[CH3-].[CH3-]`, for which the T/C runs as follows: under setting [1], 96 % of control; under setting [2], 109 % of control; under setting [4], 105 % of control.
With `CCN(CC)c1ccc(/C=N/NC(=S)NC23CC4CC(CC(C4)C2)C3)cc1`, the T/C was 100 % of control under setting [13], 101 % of control under setting [14] and 92 % of control under setting [15].
Consider `CC12CC3CC(C1)CC(NCCO)(C3)C2`, for which the T/C runs as follows: (dose: 10.0 mg/kg/injection, schedule: Q04DX002 (ip), vehicle: Klucel (hydroxypropylcellulose) (HPC)) 87 % of control; (dose: 20.0 mg/kg/injection, schedule: Q04DX002 (ip), vehicle: Klucel (hydroxypropylcellulose) (HPC)) 91 % of control; (dose: 40.0 mg/kg/injection, schedule: Q04DX002 (ip), vehicle: Klucel (hydroxypropylcellulose) (HPC)) 91 % of control.
For `CCC(F)C(Br)C(=O)O` (configuration not stated), the T/C by setting is: under setting [3], 101 % of control; under setting [5], 93 % of control; under setting [6], 87 % of control.
Turning to `O=C(O)c1cc[c]([Hg][S]c2ncnc3nc[nH]c23)cc1`, the T/C runs as follows: (dose: 6.0 mg/kg/injection, schedule: Q01DX Z (ip), vehicle: carboxymethylcellulose (CMC)) 105 % of control; (dose: 6.25 mg/kg/injection, schedule: Q01DX015 (ip), vehicle: saline) 110 % of control; (dose: 12.0 mg/kg/injection, schedule: Q01DX Z (ip), vehicle: carboxymethylcellulose (CMC)) 116 % of control; (dose: 16.5 mg/kg/injection, schedule: Q01DX009 (ip), vehicle: saline) 118 % of control; (dose: 25.0 mg/kg/injection, schedule: Q01DX015 (ip), vehicle: saline) 164 % of control; (dose: 50.0 mg/kg/injection, schedule: Q01DX Z (ip), vehicle: carboxymethylcellulose (CMC)) 103 % of control. In addition, the T/C (dose: 100.0 mg/kg/injection, schedule: Q01DX Z (ip), vehicle: carboxymethylcellulose (CMC)) is 114 % of control.
